Read-outs that look alike come from different tables or passages of the source. Starred links: 1 amine or outer side, 2 acyl side, 3 side chain; linkers in the order of their positions; H or OH if unused. Non-standard residues stand in square brackets, D forms with d. Residues, ends and D or L forms follow the SMILES beside them. Groups on a side chain read outwards from the residue. *: point of attachment. C20 diacid = O=C(O)CCCCCCCCCCCCCCCCCCC(=O)*; γGlu = O=C(O)[C@H](CCC(=O)[*:2])N[*:1]; Hyp = O=C(O)[C@@H]1C[C@@H](O)CN1; Nle = CCCC[C@H](N)C(=O)O; Ac5c = NC1(C(=O)O)CCCC1; AEEA = NCCOCCOCC(=O)O

The record followed here is patent EP4810052A2, “HCRHR2 SELECTIVE POLYPEPTIDES” (Gubra A/S, priority 2023, dated 2026).

One test addresses T1, hCRHR1 (Homo sapiens, UniProt P34998).
T1 sequence (P34998 24-415): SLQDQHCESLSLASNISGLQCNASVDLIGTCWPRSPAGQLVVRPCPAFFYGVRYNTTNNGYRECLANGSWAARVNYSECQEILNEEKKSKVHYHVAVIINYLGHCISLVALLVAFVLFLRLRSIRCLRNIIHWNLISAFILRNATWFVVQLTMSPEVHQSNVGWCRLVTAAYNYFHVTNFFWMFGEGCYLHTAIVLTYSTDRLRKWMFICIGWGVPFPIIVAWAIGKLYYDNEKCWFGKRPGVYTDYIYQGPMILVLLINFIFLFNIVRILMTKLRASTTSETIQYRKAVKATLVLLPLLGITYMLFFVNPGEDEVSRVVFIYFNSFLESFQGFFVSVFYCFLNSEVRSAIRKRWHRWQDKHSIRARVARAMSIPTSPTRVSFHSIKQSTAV
In words: HTRF cAMP assay, determination of hCRHR1 potency (peptide libraries 5 conc., purified peptides 11 conc.). Format: cell-based. The essentials: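 CHO-K1 cells stably expressing human CRHR1, thawed from frozen stocks just before use, were stimulated in suspension with agonist peptides. cAMP was measured by HTRF competitive immunoassay (cryptate anti-cAMP antibody vs d2-cAMP).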
In general terms: In TR-FRET formats the signal depends on donor and acceptor labels being close together.

The next test has as its target T2, hCRHR2 (Homo sapiens, UniProt Q13324).
T2 sequence (Q13324 1-411): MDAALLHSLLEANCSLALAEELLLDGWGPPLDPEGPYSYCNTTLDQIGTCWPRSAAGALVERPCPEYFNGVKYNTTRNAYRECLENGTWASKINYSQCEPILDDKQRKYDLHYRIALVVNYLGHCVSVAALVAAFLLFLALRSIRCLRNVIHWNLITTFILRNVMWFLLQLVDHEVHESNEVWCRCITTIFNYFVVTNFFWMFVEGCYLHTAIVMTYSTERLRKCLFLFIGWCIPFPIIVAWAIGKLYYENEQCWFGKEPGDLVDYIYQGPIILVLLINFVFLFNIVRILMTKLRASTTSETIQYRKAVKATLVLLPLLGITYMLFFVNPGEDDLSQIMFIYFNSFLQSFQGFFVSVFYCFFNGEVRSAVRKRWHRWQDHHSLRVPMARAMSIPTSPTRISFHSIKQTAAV
The test is described as follows: HTRF cAMP assay, determination of hCRHR2 potency (peptide libraries 5 conc., purified peptides 11 conc.). Type of test: cell-based. The essentials: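 CHO-K1 cells stably expressing human CRHR2 were thawed from frozen stocks immediately before use and assayed in suspension with agonist peptides. cAMP was measured by time-resolved FRET in a competitive immunoassay between cryptate-labelled anti-cAMP antibody and d2-labelled cAMP. EC50 values came from nonlinear regression, sigmoid variable-slope fit.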

The mark [1] stands for this setting: library peptides, matched molecular pairs L vs Nle in position X^38, read-out: Potency hCRHR1 pEC50 (converted).
Setting [2] is: library peptides, matched molecular pairs L vs Nle in position X^38, read-out: Potency hCRHR2 pEC50 (converted).

Regarding `CCCC[C@H](NC(=O)[C@@H](NC(=O)[C@H](CCC(=O)O)NC(=O)[C@H](C)NC(=O)[C@H](CC(N)=O)NC(=O)[C@@H](NC(=O)[C@H](CCCCNC(=O)COCCOCCNC(=O)COCCOCCNC(=O)CC[C@H](NC(=O)CC[C@H](NC(=O)CCCCCCCCCCCCCCCCCCC(=O)O)C(=O)O)C(=O)O)NC(=O)[C@H](C)NC(=O)[C@H](CCC(N)=O)NC(=O)[C@H](CCC(=O)O)NC(=O)[C@H](CCCNC(=N)N)NC(=O)[C@H](C)NC(=O)[C@H](CCC(N)=O)NC(=O)[C@H](CCCNC(=N)N)NC(=O)[C@H](C)NC(=O)[C@H](CCCNC(=N)N)NC(=O)[C@H](C)NC(=O)[C@H](CCC(N)=O)NC(=O)[C@H](CCC(=O)O)NC(=O)[C@H](CC(C)C)NC(=O)[C@H](CC(C)C)NC(=O)[C@@H](NC(=O)[C@H](CCC(N)=O)NC(=O)[C@H](CC(C)C)NC(=O)[C@H](CC(C)C)NC(=O)CNC(=O)[C@@H](NC(=O)[C@@H]1CCCN1C(=O)[C@@H](NC(=O)[C@H](CC(=O)O)NC(=O)[C@H](CC(C)C)NC(=O)[C@H](CO)NC(=O)[C@H](CC(C)C)NC(=O)[C@@H](NC(=O)[C@@H](N)[C@@H](C)CC)C(C)C)C(C)C)[C@@H](C)CC)[C@@H](C)CC)[C@@H](C)O)[C@@H](C)CC)C(=O)N[C@@H](C)C(=O)N[C@@H](CCC(=O)O)C(=O)N[C@H](C(N)=O)C(C)C` [compound 53] (H-IVLSLDVPIGLLQILLEQARARQAREQAK([AEEA-AEEA-γGlu-γGlu-C20 diacid])TNAEI[Nle]AEV-NH2), the results for the EC50 on hCRHR1 (setting [1]) and on hCRHR2 (setting [2]) were 251 nM and 0.316 nM, respectively.

As for `CC[C@H](C)[C@H](N)C(=O)N[C@H](C(=O)N[C@@H](CC(C)C)C(=O)N[C@@H](CO)C(=O)N[C@@H](CC(C)C)C(=O)N[C@@H](CC(=O)O)C(=O)N[C@H](C(=O)N1C[C@H](O)C[C@H]1C(=O)N[C@H](C(=O)NCC(=O)N[C@@H](CC(C)C)C(=O)N[C@@H](CC(C)C)C(=O)N[C@@H](CCC(N)=O)C(=O)N[C@H](C(=O)N[C@@H](CC(C)C)C(=O)N[C@@H](CC(C)C)C(=O)N[C@@H](CCC(=O)O)C(=O)N[C@@H](CCC(N)=O)C(=O)N[C@@H](C)C(=O)N[C@@H](CCCNC(=N)N)C(=O)N[C@@H](C)C(=O)N[C@@H](CCCNC(=N)N)C(=O)N[C@H](C(=O)N[C@@H](C)C(=O)N[C@@H](CCCNC(=N)N)C(=O)N[C@@H](CCC(=O)O)C(=O)N[C@@H](CCC(N)=O)C(=O)N[C@@H](C)C(=O)N[C@@H](CCCCNC(=O)COCCOCCNC(=O)COCCOCCNC(=O)CC[C@H](NC(=O)CC[C@H](NC(=O)CCCCCCCCCCCCCCCCCCC(=O)O)C(=O)O)C(=O)O)C(=O)N[C@H](C(=O)N[C@@H](CC(N)=O)C(=O)N[C@@H](C)C(=O)N[C@@H](CCC(=O)O)C(=O)N[C@H](C(=O)N[C@@H](CC(C)C)C(=O)N[C@@H](C)C(=O)N[C@@H](CCC(=O)O)C(=O)N[C@H](C(N)=O)C(C)C)[C@@H](C)CC)[C@@H](C)O)C(C)C)[C@@H](C)CC)[C@@H](C)CC)C(C)C)C(C)C` [compound 84] (H-IVLSLDV[Hyp]IGLLQILLEQARARVAREQAK([AEEA-AEEA-γGlu-γGlu-C20 diacid])TNAEILAEV-NH2), the EC50 at hCRHR1 (setting [1]) is 25.1 nM; on hCRHR2 (setting [2]) it was 1 nM.

As to `CCCC[C@H](NC(=O)[C@@H](NC(=O)[C@H](CCC(=O)O)NC(=O)[C@H](C)NC(=O)[C@H](CC(N)=O)NC(=O)[C@@H](NC(=O)[C@H](CCCCNC(=O)COCCOCCNC(=O)COCCOCCNC(=O)CC[C@H](NC(=O)CC[C@H](NC(=O)CCCCCCCCCCCCCCCCCCC(=O)O)C(=O)O)C(=O)O)NC(=O)[C@H](C)NC(=O)[C@H](CCC(N)=O)NC(=O)[C@H](CCC(=O)O)NC(=O)[C@H](CCCNC(=N)N)NC(=O)[C@H](C)NC(=O)[C@H](C)NC(=O)[C@H](CCC(N)=O)NC(=O)[C@H](C)NC(=O)[C@H](CCCNC(=N)N)NC(=O)[C@H](C)NC(=O)[C@H](CCC(N)=O)NC(=O)[C@H](CCC(=O)O)NC(=O)[C@H](CC(C)C)NC(=O)[C@H](CC(C)C)NC(=O)[C@@H](NC(=O)[C@H](CCC(N)=O)NC(=O)[C@H](CC(C)C)NC(=O)[C@H](CC(C)C)NC(=O)CNC(=O)[C@@H](NC(=O)[C@@H]1CCCN1C(=O)[C@@H](NC(=O)[C@H](CC(=O)O)NC(=O)[C@H](CC(C)C)NC(=O)[C@H](CO)NC(=O)[C@H](CC(C)C)NC(=O)[C@@H](NC(=O)[C@@H](N)[C@@H](C)CC)C(C)C)C(C)C)[C@@H](C)CC)[C@@H](C)CC)[C@@H](C)O)[C@@H](C)CC)C(=O)N[C@@H](C)C(=O)N[C@@H](CCC(=O)O)C(=O)N[C@H](C(N)=O)[C@@H](C)CC` [SEQ ID NO: 44] (H-IVLSLDVPIGLLQILLEQARAQAAREQAK([AEEA-AEEA-γGlu-γGlu-C20 diacid])TNAEI[Nle]AEI-NH2), the EC50 was 1260 nM on hCRHR1 (Table 3, matched molecular pairs X^38 L vs Nle, peptide library of Example 4, read-out: hCRHR1 pEC50 (converted)) and 0.1 nM at hCRHR2 (Table 3, matched molecular pairs X^38 L vs Nle, peptide library of Example 4, read-out: hCRHR2 pEC50 (converted)).

Regarding `CC[C@H](C)[C@H](N)C(=O)N[C@H](C(=O)N[C@@H](CC(C)C)C(=O)N[C@@H](CO)C(=O)N[C@@H](CC(C)C)C(=O)N[C@@H](CC(=O)O)C(=O)N[C@H](C(=O)N1CCC[C@H]1C(=O)N[C@H](C(=O)NCC(=O)N[C@@H](CC(C)C)C(=O)N[C@@H](CC(C)C)C(=O)N[C@@H](CCC(N)=O)C(=O)N[C@H](C(=O)N[C@@H](CC(C)C)C(=O)N[C@@H](CC(C)C)C(=O)N[C@@H](CCC(=O)O)C(=O)N[C@@H](CCC(N)=O)C(=O)N[C@@H](C)C(=O)N[C@@H](CCCNC(=N)N)C(=O)N[C@@H](C)C(=O)N[C@@H](CCC(N)=O)C(=O)N[C@@H](C)C(=O)N[C@@H](C)C(=O)N[C@@H](CCCNC(=N)N)C(=O)N[C@@H](CCC(N)=O)C(=O)N[C@@H](CCC(N)=O)C(=O)N[C@@H](C)C(=O)N[C@@H](CCCCNC(=O)COCCOCCNC(=O)COCCOCCNC(=O)CC[C@H](NC(=O)CC[C@H](NC(=O)CCCCCCCCCCCCCCCCCCC(=O)O)C(=O)O)C(=O)O)C(=O)N[C@H](C(=O)N[C@@H](CC(N)=O)C(=O)N[C@@H](C)C(=O)N[C@@H](CCC(=O)O)C(=O)N[C@H](C(=O)N[C@@H](CC(C)C)C(=O)N[C@@H](C)C(=O)N[C@@H](CCC(=O)O)C(=O)N[C@H](C(N)=O)C(C)C)[C@@H](C)CC)[C@@H](C)O)[C@@H](C)CC)[C@@H](C)CC)C(C)C)C(C)C` [compound 54] (H-IVLSLDVPIGLLQILLEQARAQAARQQAK([AEEA-AEEA-γGlu-γGlu-C20 diacid])TNAEILAEV-NH2), the EC50 is 20000 nM on hCRHR1 (setting [1]) and 0.398 nM on hCRHR2 (setting [2]).

As to `CCCC[C@H](NC(=O)[C@@H](NC(=O)[C@H](CCC(=O)O)NC(=O)[C@H](C)NC(=O)[C@H](CC(N)=O)NC(=O)[C@@H](NC(=O)[C@H](CCCCNC(=O)COCCOCCNC(=O)COCCOCCNC(=O)CC[C@H](NC(=O)CC[C@H](NC(=O)CCCCCCCCCCCCCCCCCCC(=O)O)C(=O)O)C(=O)O)NC(=O)[C@H](C)NC(=O)[C@H](CCC(N)=O)NC(=O)[C@H](CCC(=O)O)NC(=O)[C@H](CCCNC(=N)N)NC(=O)[C@H](C)NC(=O)[C@H](CCC(N)=O)NC(=O)[C@H](CCCNC(=N)N)NC(=O)[C@H](C)NC(=O)[C@H](CCCNC(=N)N)NC(=O)[C@H](C)NC(=O)[C@H](CCC(N)=O)NC(=O)[C@H](CCC(=O)O)NC(=O)[C@H](CC(C)C)NC(=O)[C@H](CC(C)C)NC(=O)[C@@H](NC(=O)[C@H](CCC(N)=O)NC(=O)[C@H](CC(C)C)NC(=O)[C@H](CC(C)C)NC(=O)CNC(=O)[C@@H](NC(=O)[C@@H]1CCCN1C(=O)C1(NC(=O)[C@H](CC(=O)O)NC(=O)[C@H](CC(C)C)NC(=O)[C@H](CO)NC(=O)[C@H](CC(C)C)NC(=O)[C@@H](NC(=O)[C@@H](N)[C@@H](C)CC)C(C)C)CCCC1)[C@@H](C)CC)[C@@H](C)CC)[C@@H](C)O)[C@@H](C)CC)C(=O)N[C@@H](C)C(=O)N[C@@H](CCC(=O)O)C(=O)N[C@H](C(N)=O)C(C)C` [compound 79] (H-IVLSLD[Ac5c]PIGLLQILLEQARARQAREQAK([AEEA-AEEA-γGlu-γGlu-C20 diacid])TNAEI[Nle]AEV-NH2), the EC50 at hCRHR1 (setting [1]) was 2 nM; on hCRHR2 (setting [2]), 0.251 nM.
